# In patent US20230322724A1, “HETEROCYCLIC COMPOUNDS AS CBP/EP300 BROMODOMAIN INHIBITORS” (AURIGENE ONCOLOGY LIMITED, priority 2020, published 2023):
# Where “and” joins values, the source holds several entries; their conditions need not be identical. Equal entries are not always repeated.
# Experiments:
# Type in all cases: binding
# [1] = biological target: T1, recombinant P300 bromodomain (Homo sapiens, UniProt Q09472); test: P300 TR-FRET displacement assay; details: dose-response, read-out: IC50 (group A, B, C)
# T1 construct: recombinant P300 bromodomain obtained from BPS Bioscience, USA; purchased BPS Bioscience, USA
# T1 sequence (Q09472 1049-1156 limits assumed): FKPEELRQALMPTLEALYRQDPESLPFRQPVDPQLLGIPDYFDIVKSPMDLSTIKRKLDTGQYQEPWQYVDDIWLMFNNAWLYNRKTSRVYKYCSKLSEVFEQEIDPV
# Method: The potency of compounds to inhibit P300 enzyme was tested in a TR-FRET displacement assay using recombinant P300 bromodomain obtained from BPS Bioscience, USA. The assay buffer was 50 mM HEPES (pH 7.5), 50 mM NaCl, 0.008% Brij 35, 0.01% BSA, 1 mM TCEP. 50 nM of P300 & 500 nM of Biotinylated ligand was incubated at room temperature for 30 minutes, the reaction was initiated by adding the pre-incubated enzyme ligand mixture to the test compounds. After 60 min incubation, the reaction was stopped by the addition of stop mix containing 1 nM of LANCE Europium-anti-6xHis antibody (Perkin Elmer, USA) and 40 nM of Sure Light Allophycocyanin-Streptavidin (Perkin Elmer, USA). Fluorescence emission of the samples at 665 and 615 nm were measured at an excitation of 340 nm and their ratio was plotted against the compound concentrations to generate dose-response curve.
# Selected compounds of the present invention were screened in the above-mentioned assay procedures and IC50 values were determined by fitting the dose-response data to sigmoidal curve fitting equation using Graph pad prism software V7.
# [2] = biological target: T2, recombinant CREBBP bromodomain (Homo sapiens, UniProt Q92793); test: CBP TR-FRET displacement assay; details: for IC50: dose-response, read-out: IC50 (group A, B, C); for inhibition at 10 µM: compound at 10 μM
# T2 construct: recombinant CREBBP bromodomain obtained from BPS Bioscience, USA; purchased BPS Bioscience, USA
# Method in brief: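 CREBBP bromodomain (50 nM) preincubated 30 min at room temperature with 500 nM biotinylated ligand in HEPES pH 7.5 buffer with TCEP, then 60 min with compound. Eu-anti-His/APC-streptavidin TR-FRET 665/615 nm ratio read; IC50 from sigmoidal dose-response fit.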
# [3] = biological target: T3, recombinant BRD4 FL bromodomain (Homo sapiens, UniProt O60885); test: BRD4 FL TR-FRET displacement assay; details: BRD4 FL; for IC50: dose-response, read-out: IC50 (group A, B, C); for inhibition at 10 µM: compound at 10 μM, read-out: % Inhibition (10 μM)
# T3 construct: fused on or other part: 6xHis tag, inferred from detection with Mab ANTI 6HIS-XL665
# Method in brief: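 Recombinant BRD4 FL (10 nM) pre-incubated 30 min at room temperature with 300 nM biotinylated acetyl-histone H4 (K5/8/12/16) in 50 mM HEPES pH 7.5, 50 mM NaCl, 500 μM CHAPS, then added to compounds for 30 min. Stopped with Eu-streptavidin/anti-6His-XL665 in KF; 665/615 nm ratio fitted sigmoidally for IC50.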
# T2 sequence (Q92793 1085-1192 limits assumed): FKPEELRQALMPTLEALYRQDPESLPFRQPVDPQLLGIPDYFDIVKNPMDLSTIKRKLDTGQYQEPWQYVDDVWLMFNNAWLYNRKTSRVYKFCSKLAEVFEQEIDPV
SMILES,IC50 [1] [µM],IC50 [2],inhibition at 10 µM [2] [%],IC50 [3] [µM],inhibition at 10 µM [3] [%]
COc1cc(N2CCN(C)c3cc(-c4cnn(C)c4)c(S(=O)(=O)NC(C)=O)cc32)c2cc(C)c(=O)n(C)c2c1 [Example 108],< 0.025,< 0.05 µM,,,
COc1cc(N2CCN(C)c3cc(-c4cccnc4)c(C#N)cc32)c2cc(C)c(=O)n(C)c2c1 [Example 15],0.025 to 0.05,< 0.05 µM,,,
"Cc1cc2c(N3CCN(C)c4cc(-c5cnn(C)c5)c(C=O)cc43)cccc2[nH]c1=O [Example 57, 1-Methyl-7-(1-methyl-1H-pyrazol-4-yl)-4-(3-methyl-2-oxo-1,2-dihydroquinolin-5-yl)-1,2,3,4-tetrahydroquinoxaline-6-carbaldehyde]",> 50,> 0.01 µM,,,
COc1cc(N2CCN(C)c3cc(-c4c(C)nn(C)c4C)c(C#N)cc32)c2cc(C)c(=O)n(C)c2c1 [Example 12],< 0.025,< 0.05 µM,,,
Cc1ccc2[nH]c(=O)c(C)cc2c1N1CCN(C)c2cc(-c3cnn(C)c3)c(C#N)cc21 [Example 38],> 50,< 0.05 µM,98,,
"COc1cc(N2CCc3cc(-c4cnn(C)c4)c(C(F)F)cc32)c2cc(C)c(=O)n(C)c2c1 [Example 195, 5-(6-(Difluoromethyl)-5-(1-methyl-1H-pyrazol-4-yl)indolin-1-yl)-7-methoxy-1,3-dimethylquinolin-2(1H)-one]",0.025 to 0.05,< 0.05 µM,,,
"COc1ccc(CN2CCN(c3cc(OC)cc4c3cc(C)c(=O)n4C)c3cc(C#N)c(-c4cnn(C)c4)cc32)cc1 [Example 8, 4-(7-methoxy-1,3-dimethyl-2-oxo-1,2-dihydroquinolin-5-yl)-1-(4-methoxybenzyl)-7-(1-methyl-1H-pyrazol-4-yl)-1,2,3,4-tetrahydroquinoxaline-6-carbonitrile]",> 50,> 0.01 µM,,,
"COC(=O)c1cc2c(cc1C#N)N(c1cc(OC)cc3c1cc(C)c(=O)n3C)CCN2C [Example 67, methyl 7-cyano-1-(7-methoxy-1,3-dimethyl-2-oxo-1,2-dihydroquinolin-5-yl)-4-methyl-1,2,3,4-tetrahydroquinoxaline-6-carboxylate]",0.025 to 0.05,< 0.05 µM,,,
"Cc1cc2c(N3CCN(C)c4cc(-c5cnn(C)c5)ncc43)cc(N3C[C@@H]4C[C@H]3CO4)cc2n(C)c1=O [Example 146, 7-((1S,4S)-2-oxa-5-azabicyclo[2.2.1]heptan-5-yl)-1,3-dimethyl-5-(1-methyl-7-(1-methyl-1H-pyrazol-4-yl)-2,3-dihydropyrido[3,4-b]pyrazin-4(1H)-yl)quinolin-2(1H)-one]",> 50,< 0.05 µM,,,
"Cc1cc2c(N3CCN(C)c4cc(-c5cnn(C)c5)c(C#N)cc43)cccc2[nH]c1=O [Example 2, 1-methyl-7-(1-methyl-1H-pyrazol-4-yl)-4-(3-methyl-2-oxo-1,2-dihydroquinolin-5-yl)-1,2,3,4-tetrahydroquinoxaline-6-carbonitrile]",< 0.025,< 0.05 µM,,,
COc1cc(N2CCN(C)c3ccc(-c4cnn(C)c4)cc32)c2cc(C)c(=O)n(C)c2c1 [Example 80],> 50,> 0.01 µM,,,
COc1cc(N2CCN(C)c3cc(-c4ccn(C)n4)c(C#N)cc32)c2cc(C)c(=O)n(C)c2c1 [Example 14],< 0.025,< 0.05 µM,,,
Cc1cc2c(N3CCN(C)c4cc(-c5cnn(C)c5)ncc43)cc(N3CCOCC3)cc2n(C)c1=O [Example 134],> 50,< 0.05 µM and 0.051 to 0.1 µM,,,
Cc1cc2c(N3CCN(C)c4cc(-c5cnn(C)c5)c(F)cc43)cc(N3CCOCC3)cc2n(C)c1=O [Example 48],< 0.025,< 0.05 µM,,,
Cc1cc2c(N3CCN(C)c4cc(-c5cnn(C)c5)c(C#N)cc43)cc(OCC3CCCN(C)C3)cc2n(C)c1=O (centres unmarked) [Example 35],< 0.025,< 0.05 µM,96,,
Cc1cc2c(N3CCCc4cc(-c5cnn(C)c5)c(C(F)F)cc43)nc(N3CC[C@H](O)C3)cc2n(C)c1=O [Example 210],0.025 to 0.05,< 0.05 µM,,,
Cc1cc2c(N3CCCc4cc(-c5cnn(C)c5)c(C(F)F)cc43)nc(N3CCC4(COC4)C3)cc2n(C)c1=O [Example 225],0.025 to 0.05,< 0.05 µM,,,
CNC(=O)[C@H]1CCN(c2cc3c(cc(C)c(=O)n3C)c(N3CCCc4cc(-c5cnn(C)c5)c(C(F)F)cc43)n2)C1 [Example 212],< 0.025,< 0.05 µM,,,

SMILES,IC50 [1] [µM],IC50 [2],inhibition at 10 µM [2] [%],IC50 [3] [µM],inhibition at 10 µM [3] [%]
Cc1cc2c(N3CCCc4cc(-c5cnn(C)c5)c(C(F)F)cc43)cc(N3CCOCC3)cc2n(C)c1=O [Example 178],< 0.025,< 0.05 µM,,,
CNC(=O)[C@@H]1CCN(c2cc3c(cc(C)c(=O)n3C)c(N3CCCc4cc(-c5cnn(C)c5)c(C(F)F)cc43)n2)C1 [Example 211],< 0.025,< 0.05 µM,,,
"Cc1cc2c(N3CCN(C)c4cc(-c5cnn(C)c5)c(C#N)cc43)cc(OCC(=O)OC(C)(C)C)cc2n(C)c1=O [Example 3, Tert-butyl 2-((5-(7-cyano-4-methyl-6-(1-methyl-1H-pyrazol-4-yl)-3,4-dihydroquinoxalin-1(2H)-yl)-1,3-dimethyl-2-oxo-1,2-dihydroquinolin-7-yl)oxy)acetate]",> 50,> 0.01 µM,,,
"Cc1cc2c(N3CCN(C)c4cc(-c5cnn(C)c5)c(C#N)cc43)cc(OCC(=O)O)cc2n(C)c1=O [Example 71, 2-((5-(7-Cyano-4-methyl-6-(1-methyl-1H-pyrazol-4-yl)-3,4-dihydroquinoxalin-1(2H)-yl)-1,3-dimethyl-2-oxo-1,2-dihydroquinolin-7-yl)oxy)acetic acid]",< 0.025,< 0.05 µM,,,
COc1cc(N2CCN(C)c3cc(-c4cnc(O)nc4)c(C#N)cc32)c2cc(C)c(=O)n(C)c2c1 [Example 16],< 0.025,< 0.05 µM,,,
CNC(=O)c1ccc(-c2cc3c(cc2C#N)N(c2cc(OC)cc4c2cc(C)c(=O)n4C)CCN3C)cn1 [Example 11],< 0.025,< 0.05 µM,,,
COc1cc(N2CCN(C)c3cc(N4CCC(O)C4)c(C#N)cc32)c2cc(C)c(=O)n(C)c2c1 (centres unmarked) [Example 20],0.025 to 0.05,< 0.05 µM,,,
"COc1cc(N2CCNc3cc(-c4cnn(C)c4)c(C#N)cc32)c2cc(C)c(=O)n(C)c2c1 [Example 62, 4-(7-methoxy-1,3-dimethyl-2-oxo-1,2-dihydroquinolin-5-yl)-7-(1-methyl-1H-pyrazol-4-yl)-1,2,3,4-tetrahydroquinoxaline-6-carbonitrile]",0.025 to 0.05,> 0.01 µM,,,
COc1cc(N2CCN(C3CC3)c3cc(N4CCN(C)CC4)c(C#N)cc32)c2cc(C)c(=O)n(C)c2c1 [Example 25],0.025 to 0.05,< 0.05 µM,,,
Cc1cc2c(N3CCCc4cc(-c5cnn(C)c5)c(C(F)F)cc43)nc(N3CCC(O)C3)cc2n(C)c1=O (centres unmarked) [Example 208],,< 0.05 µM,,2.01 to 5,
"COc1cc(N2CCN(C)c3ccc(CC(=O)NO)cc32)c2cc(C)c(=O)n(C)c2c1 [Example 83, N-hydroxy-2-(4-(7-methoxy-1,3-dimethyl-2-oxo-1,2-dihydroquinolin-5-yl)-1-methyl-1,2,3,4-tetrahydroquinoxalin-6-yl)acetamide]",,> 0.01 µM,,2.01 to 5,
"Cc1cc2c(N3CCN(C)c4ccc(C#N)cc43)cc(OCC(=O)O)cc2n(C)c1=O [Example 82, 2-((5-(7-Cyano-4-methyl-3,4-dihydroquinoxalin-1(2H)-yl)-1,3-dimethyl-2-oxo-1,2-dihydroquinolin-7-yl)oxy)acetic acid]",,0.051 to 0.1 µM,,2.01 to 5,
CNS(=O)(=O)c1ccc2c(c1)N(c1cc(OC)cc3c1cc(C)c(=O)n3C)CCN2C [Example 95],,< 0.05 µM,,2.01 to 5,
Cc1cc2c(N3CCN(C)c4cc(-c5cnn(C)c5)ncc43)cc(N3CC(C)OC(C)C3)cc2n(C)c1=O (centres unmarked) [Example 132],,< 0.05 µM,,2.01 to 5,
Cc1cc2c(N3CCN(C)c4cc(-c5cnn(C)c5)ncc43)cc(C3CCC(F)(F)CC3)cc2n(C)c1=O [Example 154],,0.051 to 0.1 µM,,2.01 to 5,
Cc1cc2c(N3CCCc4ccc(C(F)F)cc43)nc(N3CCC(O)C3)cc2n(C)c1=O (centres unmarked) [Example 230],,> 0.01 µM,,,21
COc1cc(N2CCN(C)c3cc(-c4cnn(C)c4)nc(C)c32)c2cc(C)c(=O)n(C)c2c1 [Example 127],,< 0.05 µM,,,32
CNC(=O)C1CCN(c2cc3c(cc2F)N(c2cc(OC)cc4c2cc(C)c(=O)n4C)CCN3C)CC1 [Example 33],,0.051 to 0.1 µM,,2.01 to 5,
